# Read-outs that look alike come from different tables or passages of the source.
# Assays:
# giant foxtail = test: Test A pre-/postemergence herbicide test; assay type: in vivo, Setaria faberi; settings: Setaria faberi, 240 h; for pest or weed control at 500 g/ha: 500 g ai/ha; for pest or weed control at 2000 g/ha: 2000 g ai/ha
# In short: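 Pre: seeded sandy loam, directed soil spray, compound in non-phytotoxic solvent + surfactant. Post: 1–2-leaf plants (2–10 cm), sprayed to runoff. Greenhouse ~10 d; visual injury vs untreated, 0–100 scale.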
# wheat = test: Test B postemergence herbicide test; assay type: in vivo, Triticum aestivum; settings: Triticum aestivum, post-emergence, 336 h, postemergence, read-out: Wheat plant response rating; for plant injury at 125 g/ha: 125 g ai/ha; for plant injury at 500 g/ha: 500 g ai/ha
# In short: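 Scale 0–100: zero equals no visible effect, 100 complete control, judged by eye relative to controls. Timing: 13 to 15 days in greenhouse post-treatment. Growth stage at spraying: two leaves (paddy) or one to four leaves, 2–18 cm (postemergence).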
# barnyardgrass [1] = test: Test B flooded paddy test; assay type: in vivo, Echinochloa crus-galli; settings: Echinochloa crus-galli, 336 h, 1000 g ai/ha, scale 0 to 100 (0 no effect, 100 complete control), read-out: Barnyardgrass plant response rating
# In short: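 Read-out: visual comparison with controls, scored 0 to 100, where 100 means complete control and 0 no effect. Formulated chemicals were applied postemergence to plants 2–18 cm tall (1- to 4-leaf), or to flooded-paddy plants at the 2-leaf stage, then held 13 to 15 days under glass.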
# large crabgrass = test: Test C pre-/postemergence herbicide test; assay type: in vivo, Digitaria sanguinalis; settings: Digitaria sanguinalis, pre-emergence, 312 h, read-out: Plant response rating, Crabgrass, Large; for pest or weed control at 62 g/ha: 62 g ai/ha, preemergence, scale 0 to 100; for pest or weed control at 125 g/ha: 125 g ai/ha, scale 0 (no effect) to 100 (complete control); for pest or weed control at 125 g/ha / pest or weed control at 500 g/ha: visual, 12 to 14 days; for pest or weed control at 250 g/ha: 250 g ai/ha, scale 0-100; for pest or weed control at 500 g/ha: 500 g ai/ha, scale 0 to 100 (0 no effect, 100 complete control)
# In short: (§1)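 Visual injury scores run from 0 (no effect) to 100 (complete control), assessed relative to untreated controls 12 to 14 days after treatment in the greenhouse. Chemicals were formulated in a non-phytotoxic solvent mixture with surfactant and applied to soil after planting or to emerged plants at the 1- to 4-leaf stage.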
# woolly cupgrass = test: Test C pre-/postemergence herbicide test; assay type: in vivo, Eriochloa villosa; settings: Eriochloa villosa, pre-emergence, 312 h, read-out: Plant response rating, Cupgrass, Woolly; for pest or weed control at 62 g/ha: 62 g ai/ha, preemergence, scale 0 to 100; for pest or weed control at 125 g/ha: 125 g ai/ha, scale 0 (no effect) to 100 (complete control); for pest or weed control at 125 g/ha / pest or weed control at 500 g/ha: visual, 12 to 14 days; for pest or weed control at 250 g/ha: 250 g ai/ha, scale 0-100; for pest or weed control at 500 g/ha: 500 g ai/ha, scale 0 to 100 (0 no effect, 100 complete control)
# In short: as §1
# eastern black nightshade = test: Test C pre-/postemergence herbicide test; assay type: in vivo, Solanum ptycanthum; settings: pre-emergence, read-out: Plant response rating, Nightshade; for pest or weed control at 62 g/ha: 62 g ai/ha, preemergence, scale 0 to 100; for pest or weed control at 125 g/ha: 125 g ai/ha, scale 0 (no effect) to 100 (complete control); for pest or weed control at 125 g/ha / pest or weed control at 500 g/ha: visual, 12 to 14 days; for pest or weed control at 250 g/ha: 250 g ai/ha, scale 0-100; for pest or weed control at 500 g/ha: 500 g ai/ha, scale 0 to 100 (0 no effect, 100 complete control)
# In short: as §1
# yellow nutsedge = test: Test C pre-/postemergence herbicide test; assay type: in vivo, Cyperus esculentus; settings: Cyperus, pre-emergence, read-out: Plant response rating, Nutsedge, Yellow; for pest or weed control at 62 g/ha: 62 g ai/ha, preemergence, scale 0 to 100; for pest or weed control at 125 g/ha: 125 g ai/ha, scale 0 (no effect) to 100 (complete control); for pest or weed control at 125 g/ha / pest or weed control at 500 g/ha: visual, 12 to 14 days; for pest or weed control at 250 g/ha: 250 g ai/ha, scale 0-100; for pest or weed control at 500 g/ha: 500 g ai/ha, scale 0 to 100 (0 no effect, 100 complete control)
# In short: as §1
# rice = test: Test C flooded paddy test; assay type: in vivo, Oryza sativa; settings: Oryza sativa; for plant injury at 62 g/ha: 62 g ai/ha; for plant injury at 125 g/ha: 125 g ai/ha; for plant injury at 250 g/ha: 250 g ai/ha, scale of 0 to 100, 0 is no effect, 100 is complete control; for plant injury at 500 g/ha: 500 g ai/ha, visual rating after 12 to 14 days, read-out: Plant response rating, Rice
# In short: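 Injury scored visually against controls on a 0 (no effect) to 100 (complete control) scale, 12 to 14 days after treatment in greenhouse. Flooded paddy plants treated at 2-leaf stage; postemergence plants at 1- to 4-leaf stage, 2 to 18 cm tall.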
# barnyardgrass [2] = test: Test C flooded paddy test; assay type: in vivo, Echinochloa crus-galli; settings: Echinochloa crus-galli; for pest or weed control at 62 g/ha: 62 g ai/ha; for pest or weed control at 62 g/ha / pest or weed control at 125 g/ha / pest or weed control at 500 g/ha: scale 0 to 100 (0 no effect, 100 complete control); for pest or weed control at 62 g/ha / pest or weed control at 125 g/ha / pest or weed control at 250 g/ha: read-out: Barnyardgrass plant response rating; for pest or weed control at 125 g/ha: 125 g ai/ha; for pest or weed control at 250 g/ha: 250 g ai/ha, scale of 0 to 100, 0 is no effect, 100 is complete control; for pest or weed control at 500 g/ha: 500 g ai/ha, visual rating after 12 to 14 days, read-out: Plant response rating, Barnyardgrass
# In short: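 Scoring by eye, 12–14 days post-treatment, greenhouse-held plants vs. controls; 0 no effect, 100 complete control. Sprayed at 1–4 leaves (2–18 cm); paddy barnyardgrass at 2 leaves, flooded.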
# [3] = post-emergence, Postemergence, 0 to 100 scale, 0 no effect, 100 complete control, read-out: Foxtail, Giant plant response rating
# [4] = post-emergence, Postemergence, 0 to 100 scale, 0 no effect, 100 complete control, read-out: Plant response rating, Foxtail, Giant
# [5] = pre-emergence, Preemergence, visual rating, 0 to 100 scale (0 no effect, 100 complete control), read-out: Foxtail, Giant plant response rating
# [6] = pre-emergence, preemergence, visual injury, 0 to 100 scale (0 no effect, 100 complete control), read-out: Foxtail, Giant plant response rating
# [7] = visual rating, scale 0 (no effect) to 100 (complete control)
# [8] = scale 0 to 100 (0 no effect, 100 complete control), read-out: Rice plant response rating
# [9] = read-out: Rice plant response rating
# [10] = scale 0 to 100 (0 no effect, 100 complete control)
Structure (SMILES),pest or weed control at 500 g/ha (giant foxtail; [3]) [%],pest or weed control at 2000 g/ha (giant foxtail; [4]) [%],pest or weed control at 2000 g/ha (giant foxtail; [5]) [%],pest or weed control at 500 g/ha (giant foxtail; [6]) [%],plant injury at 125 g/ha (wheat; [7]) [%],pest or weed control at 62 g/ha (large crabgrass) [%],pest or weed control at 125 g/ha (large crabgrass) [%],pest or weed control at 250 g/ha (large crabgrass) [%],pest or weed control at 500 g/ha (large crabgrass) [%],pest or weed control at 62 g/ha (woolly cupgrass) [%],pest or weed control at 125 g/ha (woolly cupgrass) [%],pest or weed control at 250 g/ha (woolly cupgrass) [%],pest or weed control at 500 g/ha (woolly cupgrass) [%],pest or weed control at 62 g/ha (eastern black nightshade) [%],pest or weed control at 125 g/ha (eastern black nightshade) [%],pest or weed control at 250 g/ha (eastern black nightshade) [%],pest or weed control at 500 g/ha (eastern black nightshade) [%],pest or weed control at 62 g/ha (yellow nutsedge) [%],pest or weed control at 125 g/ha (yellow nutsedge) [%],pest or weed control at 250 g/ha (yellow nutsedge) [%],also measured
"CCc1nn(C(C)(C)C)cc1C(=O)Nc1cc(C(=O)N(C)C)ccc1F [Compound 222, N-[5-[(dimethylamino)carbonyl]-2-fluorophenyl]-1-(1,1-dimethylethyl)-3-ethyl-1H-pyrazole-4-carboxamide]",65,85,100,95,0,100,100,100,100,20,100,100,100,85,100,100,100,0,0,20,"plant injury at 500 g/ha (wheat; [7]): 20%; pest or weed control at 1000 g/ha (barnyardgrass [1]; visual rating, 13 to 15 days): 90%; pest or weed control at 500 g/ha (yellow nutsedge): 60%; plant injury at 62 g/ha (rice; [8]): 30%; plant injury at 125 g/ha (rice; [8]): 70%; plant injury at 250 g/ha (rice; [9]): 85%; plant injury at 500 g/ha (rice; [10]): 85%; pest or weed control at 62 g/ha (barnyardgrass [2]): 15%; pest or weed control at 125 g/ha (barnyardgrass [2]): 75%; pest or weed control at 250 g/ha (barnyardgrass [2]): 90%; pest or weed control at 500 g/ha (barnyardgrass [2]): 95%"
"CCN1N=C(C(C)(C)C)CC1C(=O)Nc1cc(C(=O)N(C)C)ccc1F (centres unmarked) [Compound 268, N-[5-[(dimethylamino)carbonyl]-2-fluorophenyl]-3-(1,1-dimethylethyl)-1-ethyl-4,5-dihydro-1H-pyrazole-5-carboxamide]",55,80,100,100,30,90,95,100,100,50,70,95,95,100,100,100,100,30,50,60,"plant injury at 500 g/ha (wheat; scale 0 to 100, 0 is no effect, 100 is complete control): 30%; pest or weed control at 1000 g/ha (barnyardgrass [1]): 90%; pest or weed control at 500 g/ha (yellow nutsedge): 70%; plant injury at 62 g/ha (rice; scale 0 to 100, read-out: Rice plant response rating): 75%; plant injury at 125 g/ha (rice; [8]): 85%; plant injury at 250 g/ha (rice; [9]): 90%; plant injury at 500 g/ha (rice; [10]): 90%; pest or weed control at 62 g/ha (barnyardgrass [2]): 65%; pest or weed control at 125 g/ha (barnyardgrass [2]): 90%; pest or weed control at 250 g/ha (barnyardgrass [2]): 95%; pest or weed control at 500 g/ha (barnyardgrass [2]): 95%"
